Measurements taken from ChEMBL document CHEMBL3885861, “Open TG-GATES”.

Organism: Rattus norvegicus
Assay: Open TG-GATES - Regimen: Single
Assay type: toxicity, organism-based, Sprague-Dawley
Set-up: regimen Single, gender Male, age 6 weeks
Conditions: in vivo, po, 15 mg/kg, route gavage, dose level Low; for APTT / Bas / Eos / Fbg / Hb / Ht / Lym / MCH / MCHC / MCV / Mono / Neu / PT / Plat / RBC / Ret / WBC: tissue Blood; for KIDNEY_L / KIDNEY_R / KIDNEY_TOTAL: tissue Kidney; for LIVER: tissue Liver; for A/G / ALP / ALT / AST / BUN / CRE / Ca / Cl / DBIL / GLC / IP / K / LDH / Na / PL / RALB / TBIL / TC / TG / TP / gamma-GTP: tissue Plasma

S=C=Nc1cccc2ccccc12 [1-NAPHTHYLISOTHIOCYANATE]
TERMINAL_BW (3 h): 226 g | APTT (3 h): 18.2 s | Bas (3 h): 0.2% | Eos (3 h): 0.8% | Fbg (3 h): 233 mg/dL | Hb (3 h): 13.7 g/dL | Ht (3 h): 38.1% | Lym (3 h): 75.2% | MCH (3 h): 22 pg | MCHC (3 h): 35.8% | MCV (3 h): 61.5 fL | Mono (3 h): 3% | Neu (3 h): 20% | PT (3 h): 11.7 s | Plat (3 h): 119.1 x10_4/uL | RBC (3 h): 622.2 x10_4/ul | Ret (3 h): 8.4% | WBC (3 h): 91.8 x10_2/uL | KIDNEY_L (3 h): 1 g | KIDNEY_R (3 h): 1 g | KIDNEY_TOTAL (3 h): 2 g | LIVER (3 h): 10.2 g | A/G (3 h): 1.6 | ALP (3 h): 1037.2 IU/L | ALT (3 h): 42.2 IU/L | AST (3 h): 75 IU/L | BUN (3 h): 10.6 mg/dL | CRE (3 h): 0.4 mg/dL | Ca (3 h): 10.8 mg/dL | Cl (3 h): 103.8 meq/L | DBIL (3 h): 0.1 mg/dL | GLC (3 h): 220.4 mg/dL | IP (3 h): 10 mg/dL | K (3 h): 4.1 meq/L | LDH (3 h): 199.8 IU/L | Na (3 h): 142 meq/L | PL (3 h): 159.4 mg/dL | RALB (3 h): 3.4 g/dL | TBIL (3 h): 0.1 mg/dL | TC (3 h): 75.2 mg/dL | TG (3 h): 135.2 mg/dL | TP (3 h): 5.6 g/dL | gamma-GTP (3 h): 0.8 IU/L | TERMINAL_BW (6 h): 220 g | APTT (6 h): 18.5 s | Bas (6 h): 0% | Eos (6 h): 0.8% | Fbg (6 h): 243.4 mg/dL | Hb (6 h): 13.8 g/dL | Ht (6 h): 38.6% | Lym (6 h): 75.2% | MCH (6 h): 21.8 pg | MCHC (6 h): 35.7% | MCV (6 h): 60.9 fL | Mono (6 h): 3.2% | Neu (6 h): 19.8% | PT (6 h): 11.8 s | Plat (6 h): 120.7 x10_4/uL | RBC (6 h): 634.6 x10_4/ul | Ret (6 h): 7% | WBC (6 h): 100.7 x10_2/uL | KIDNEY_L (6 h): 1 g | KIDNEY_R (6 h): 1 g | KIDNEY_TOTAL (6 h): 1.9 g | LIVER (6 h): 9.6 g | A/G (6 h): 1.7 | ALP (6 h): 1074.4 IU/L | ALT (6 h): 32.4 IU/L | AST (6 h): 68.2 IU/L | BUN (6 h): 8 mg/dL | CRE (6 h): 0.4 mg/dL | Ca (6 h): 10.5 mg/dL | Cl (6 h): 103.8 meq/L | DBIL (6 h): 0.1 mg/dL | GLC (6 h): 235.8 mg/dL | IP (6 h): 10 mg/dL | K (6 h): 4.1 meq/L | LDH (6 h): 196 IU/L | Na (6 h): 141.6 meq/L | PL (6 h): 140.2 mg/dL | RALB (6 h): 3.5 g/dL | TBIL (6 h): 0.1 mg/dL | TC (6 h): 77 mg/dL | TG (6 h): 61 mg/dL | TP (6 h): 5.6 g/dL | gamma-GTP (6 h): 1.2 IU/L
